Reference: PubChem BioAssay (NCI)
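These data come from cells grown in 96-well plates and exposed to compound for 48 hours at five concentrations. Definition used: TGI = concentration required for complete inhibition of growth.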

Key:
Assay in all cases: NCI anticancer screen, dose series, 48 h
NCI/ADR-RES ovarian = test system: NCI/ADR-RES ovarian
UACC-62 melanoma = test system: UACC-62 melanoma
HS 578T breast = test system: HS 578T breast
OVCAR-3 ovarian = test system: OVCAR-3 ovarian
A549 NSCLC = test system: A549 NSCLC
EKVX NSCLC = test system: EKVX NSCLC
SF-295 CNS = test system: SF-295 CNS
U251 CNS = test system: U251 CNS
HT29 colon = test system: HT29 colon
RPMI-8226 leukemia = test system: RPMI-8226 leukemia
SF-268 CNS = test system: SF-268 CNS
NCI-H522 lung = test system: NCI-H522 lung
TK-10 renal = test system: TK-10 renal

SMILES	TGI (NCI/ADR-RES ovarian)	TGI (UACC-62 melanoma)	TGI (HS 578T breast)	TGI (OVCAR-3 ovarian)	TGI (A549 NSCLC)	TGI (EKVX NSCLC)	TGI (SF-295 CNS)	TGI (U251 CNS)	TGI (HT29 colon)	TGI (RPMI-8226 leukemia)	TGI (SF-268 CNS)	TGI (NCI-H522 lung)	TGI (TK-10 renal)
N#CC(C#N)=Cn1c(=S)[nH]c2ccccc21	> 100 µM	> 100 µM	> 100 µM	> 100 µM	> 100 µM	> 100 µM	> 100 µM	> 100 µM	> 100 µM	> 100 µM	> 100 µM	> 100 µM	> 100 µM
COc1ccc(CCNC(=O)[C@H]2CCCC[C@@H]2CCO)cc1OC	> 100 µM	> 100 µM	> 100 µM	> 100 µM	> 100 µM	> 100 µM	> 100 µM	> 100 µM	> 100 µM	> 100 µM	> 100 µM	> 100 µM	> 100 µM
O=C(/C=C(\O)c1ccccc1)c1cc(-c2ccccc2)n(-c2ccccc2)n1	> 100 µM	13.4 µM	> 100 µM	> 100 µM	24.9 µM	> 100 µM	> 100 µM	62.6 µM	18.7 µM	6.1 µM	> 100 µM	42.4 µM	> 100 µM
CCOP(=O)(OCC)/C(C#N)=C/c1ccnc2ccccc12	> 100 µM	61.4 µM	69.6 µM	70.6 µM	> 100 µM	> 100 µM	57.9 µM	> 100 µM	37.5 µM	> 100 µM	56.5 µM	57.8 µM	> 100 µM
c1ccc(CC2(c3cc4ccccc4[nH]3)OCCO2)nc1	> 100 µM	> 100 µM	> 100 µM	> 100 µM	> 100 µM	> 100 µM	> 100 µM	> 100 µM	> 100 µM	> 100 µM	> 100 µM	> 100 µM	> 100 µM
CC(=O)O[C@@H](C1C[C@@H](C)[C@H]2[C@@](O)(O1)[C@H](O)[C@@]1(C)C3=CC[C@H]4C(C)(C)[C@@H](OC5OCC(O)C(O)C5O)CC[C@@]45C[C@@]35CC[C@]21C)C(C)(C)O (some centres not stated)	> 100 µM	40.3 µM	> 100 µM	41.9 µM	> 100 µM	61.6 µM	48.1 µM	36 µM	> 100 µM	59.5 µM	> 100 µM	36.9 µM	69.5 µM
CNCCC=C1c2ccccc2CCc2ccccc21	30.4 µM	28.3 µM	51.1 µM	23.6 µM	32.1 µM	29.2 µM	27.8 µM	27.6 µM	16.1 µM	32.8 µM	29.6 µM	29.2 µM	28 µM
S=C1N=C(Cl)/C(=C\c2ccccc2)N1	> 100 µM	> 100 µM	> 100 µM	> 100 µM	> 100 µM	> 100 µM	> 100 µM	> 100 µM	> 100 µM	> 100 µM	> 100 µM	> 100 µM	> 100 µM
COc1ccc(N2C(=O)CC(c3c[nH]c4ncccc34)C2=O)cc1 (configuration not stated)	> 79.1 µM	> 96.4 µM	> 100 µM	36.2 µM	> 100 µM	> 75.6 µM	> 100 µM	> 100 µM	40.5 µM	> 100 µM	> 100 µM	24.2 µM	19.5 µM
